This is an account of results in patent publication US11104589B2, “Recycling method of amphiphilic surface-active pollutants in water” (INSTITUTE OF PROCESS ENGINEERING, CHINESE ACADEMY OF …, priority 2018, dated 2021).

Each structure is given as a SMILES string.

The data set concerns Human lung cancer cell line A549 cells. Description: MTT cytotoxicity assay. In kind it is cell-based. The settings on record: 24 hours incubation. The method, then:
Human lung cancer cell line A549 cells were grown in DMEM medium supplemented with 10% (v/v) of fetal bovine serum (FBS) and 1% of penicillin streptomycin. A549 was first incubated at 37° C. for 24 hours with a density of 5000 cells per well. After being washed with phosphate buffered saline (PBS, pH=7.4), A549 cells were incubated together with 200 μL of medium having various concentrations for 24 hours (15 μ[…]). Three sets of parallel replicates were prepared for each concentration. Then, the medium was removed and replaced with 20 μL of MTT solution (5 mg/mL). A549 cells were further incubated for 3 hours. The medium having MTT was removed and replaced with 100 μL of DMSO. The plate was then shaken for 10 minutes. To assess cell viability, the optical density of the mixture at 492 nm was measured by an enzyme-linked immunosorbent assay spectrophotometer (infinite […]). For labeling, A549 cells were incubated at 37° C. for 24 hours in a cell culture dish with glass bottom at a density of 5000 cells/well and then mixed with prepared FCNs samples. […] The cell culture dish with glass bottom was covered with a tin foil until cell images were obtained by fluorescence microscopy under excitation at 408 nm, 488 nm and 561 nm.

`CCCCCCCCC(=O)O` [nonanoic acid]: the “toxicity to the cells (cytotoxicity, MTT)” value (concentration greater than 3840 μM) was “significant toxicity to the cells”. Further, the “effect on cell viability (cytotoxicity, MTT)” value (low concentration (15-240 μM)) was “almost no effect on cell viability”.
